Holding throughout (experiment): NCI anticancer screen, dose series, 48 h
For assay [1], the system named is BT-549 breast.
For assay [2], the system named is HOP-62 NSCLC.
In assay [3] the test system is UO-31 renal.
The test system of assay [4] is T-47D breast.
The subject of assay [5] is SNB-75 CNS.
Assay [6] deals with MCF7 breast.
In assay [7] the test system is A498 renal.
For assay [8], the system named is EKVX NSCLC.
For assay [9], the system named is KM12 colon.
Assay [10] has as its system CCRF-CEM leukemia.

“And” between values parts separate entries of the source, which are not always exact repeats. Equal values may be shown once.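 Dose response: 5 concentrations. Exposure: 48 h. Format: 96-well plates. Endpoint: linear interpolation; highest concentration if not reached. Here, GI50 denotes the concentration required for 50% inhibition of growth. TGI marks complete inhibition of growth.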 Where a SMILES comes first, the peptide text is derived from it. Bridges are numbered along the chain shown (N, C = ends). [ ]: non-standard residue; d: D form. aThr = C[C@H](O)[C@H](N)C(=O)O

On to `COc1cc(C(=O)/C=C/c2cccc(Nc3ccnc4cc(Cl)ccc34)c2)cc(OC)c1OC`, for which the GI50 is 1.23 µM in [1]; 0.676 µM in assay [2]; 0.566 µM in [3]; 1.22 µM in [4]; 1.31 µM in [5]; 0.609 µM in assay [6]. Also, the GI50 in [7] was 1.54 µM. The TGI in assay [1] came to 2.84 µM; in assay [2], 2.27 µM; in [3], 1.95 µM; in [4], 3.17 µM; in [5] it was 3.64 µM; in [6], 2.06 µM. This compound also showed a TGI in assay [7] of 4.21 µM.

With `COc1cc2nnc3c4cccnc4[nH]c3c2cc1OC`, the GI50 in [8] was 3.39 µM and 2.43 µM; in assay [1] it was 6.42 µM and 3.75 µM; in assay [2] it was 13.5 µM and 2.26 µM; in assay [3], 1.52 µM and 0.486 µM; in assay [4] it was 0.595 µM and 0.401 µM; in assay [5], 2.35 µM and 1.48 µM. Besides, the GI50 was 0.836 µM and 0.34 µM in assay [6]; 9.26 µM and 2.74 µM in [7]; 2.68 µM and 1.91 µM in [9]. In addition, the TGI in assay [8] is 50 µM and 8 µM; in assay [1] it was 43.9 µM and 35.1 µM; in assay [2], 37.1 µM and 5.61 µM; in [3], 10.9 µM and 2.66 µM; in assay [4], 5.61 µM and 3.42 µM; in assay [5] it was 21.9 µM and 7.45 µM. Also, the TGI is 10.9 µM and 2.82 µM in assay [6]; 26.2 µM and 12.4 µM in assay [7]; 50 µM and 15.4 µM in assay [9].

For `O=NN(CCCl)C(=O)NC1CCC(CC(=O)O)CC1` (stereo not drawn), the TGI in assay [8], in [2], in assay [3], in [5], in [6] and in assay [7] was > 100 µM in each case. The TGI in assay [10] is > 100 µM and 62.2 µM; in assay [9], > 100 µM.

Turning to `CCOC(=O)/C(=C\c1cccc(C)c1)C(C)=O`, the TGI in [8] was > 100 µM; in assay [1], 22.7 µM; in assay [2], 96.1 µM; in assay [3], 33.7 µM; in assay [4], 46.7 µM; in assay [5], 25.2 µM. The TGI in assay [6] is 35.4 µM; in assay [7] it was 52 µM; in assay [9] it was 32.9 µM.

Consider `Cc1cccc(Cn2cc(CO)c3cnccc32)c1`, for which the GI50 is 20.9 µM in [8]; 35.7 µM in [1]; > 100 µM in assay [2]; 46.4 µM in assay [3]; 47.2 µM in assay [4]; 69.4 µM in [5]. Also, the GI50 in [6] was 51.3 µM; in assay [7] it was 10 µM; in assay [9] it was 85.6 µM. The TGI in assay [8], in assay [1], in assay [2], in assay [3], in [4] and in [5] was > 100 µM each time. The TGI in assay [6] is > 100 µM; in [7], 26.7 µM; in [9], > 100 µM.

Take `COC12C(COC(=O)NCCO)C3=C(C(=O)C(C)=C(N)C3=O)N1CC1NC12` (stereo not drawn): the TGI in assay [8] was > 264 µM; in [1], 171 µM; in assay [2] it was 74.7 µM and 139 µM; in assay [3], > 264 µM; in assay [4] it was > 264 µM; in assay [6], 118 µM. The TGI in assay [7] is 122 µM; in assay [10], > 264 µM; in [9] it was 177 µM. The GI50 is 28.4 µM in assay [2], > 264 µM in [3] and 61.7 µM in assay [9].

Turning to `CC(C)C[C@@H]1NC(=O)[C@@H]2CCCN2C(=O)[C@@H]2CCCN2C(=O)[C@H](CC(C)C)NC(=O)[C@H](CO)NC(=O)[C@H](CCCCN)NC(=O)[C@H]([C@H](C)O)NC(=O)[C@@H]2CSSC[C@@H](NC1=O)C(=O)N[C@@H](Cc1ccccc1)C(=O)N1CCC[C@H]1C(=O)N[C@@H](CC(=O)O)C(=O)NCC(=O)N[C@@H](CCCN=C(N)N)C(=O)N2` (cyclo(C[aThr]KSLPPL[dC]FPDGR); disulfide 1-9), the GI50 in assay [8], in assay [1], in assay [2], in assay [3], in [4] and in assay [6] was > 50 µM each time. Also, the values for the GI50 in assay [7], in assay [10] and in [9] were 13.2 µM, > 50 µM and > 50 µM, respectively. Moreover, the TGI in assay [8], in assay [1], in [2], in assay [3], in assay [4] and in assay [6] was > 50 µM each time. In addition, the TGI in [7] was 33.5 µM; in [10] it was > 50 µM; in assay [9], > 50 µM.

Regarding `OCC1CC[N-]CC1.OCC1CC[N-]CC1.[Cl][Pt+2]([Cl])([Cl])[Cl]`, the GI50 in assay [8] is 30.7 µM; in assay [1] it was 27 µM; in [2], 33.1 µM; in [3], 31.2 µM; in [4] it was 15.2 µM; in assay [6], 26.2 µM. Further, the GI50 in [7] was 95.3 µM; in assay [9] it was 28.9 µM. For the same compound, the TGI in [3] was 89.9 µM; in assay [4], 58.1 µM; in [9], 77.3 µM.

As for `CC(C)Cc1ccc(C(C)/C=C2\CCC(CN(C)C)C2=O)cc1` (stereo not drawn), the TGI is 40.2 µM in [8]; 31.1 µM in assay [1]; 25 µM in assay [2]; 23.4 µM in assay [3]; 30.8 µM in assay [5]; 18 µM in assay [6]. Besides, the figures for the TGI in assay [7], in [10] and in [9] were 39.5 µM, 23.4 µM and 18.2 µM, respectively.

For `CCCCCC/C=C\CCCCCCCCC(=O)c1cccc(OC)c1OC`, the TGI in assay [8], in assay [1], in assay [2], in [3], in assay [4] and in [5] was > 100 µM throughout. In addition, the TGI in [7], in [10] and in [9] was > 100 µM each time.

As to `N#CC1CC(c2ccccc2)Nc2cc(Cl)ccc2N1` (stereo not drawn), the TGI in assay [8], in [2], in [3], in assay [5], in [7] and in assay [10] was > 100 µM in each case. The TGI in assay [9] was > 100 µM.

For the origin of these results see PubChem BioAssay (NCI).
